Laboratory results from patent publication US11214803B2, “Modulators of YAP1 expression” (Ionis Pharmaceuticals, Inc., priority 2019, dated 2022).
Strand notation (5' to 3'): a small letter for the sugar, then the base; units joined by * are phosphorothioate-linked, units joined directly phosphodiester-linked; [ ] holds rarer units or linkages, { } end groups; capitals alone tell only the bases. k = constrained ethyl (cEt); [5mC] = 5-methylcytosine; d = 2'-deoxy (DNA)

Tested on: Yap1 mRNA
Experiment: Dose-dependent inhibition of human Yap1 in A-431 cells (Example 6, 5,000 cells per well, RTS4814)
Assay type: cell-based
Details: for Yap1 mRNA, % UTC: 48 hours; for % UTC 148 nM / % UTC 444 nM / % UTC 1333 nM / % UTC 4000 nM: approximately 48 hours
Method: Modified oligonucleotides described in the studies above were tested at various doses in A-431 cells. Cultured A-431 cells at a density of 5,000 cells per well were treated using free uptake with modified oligonucleotides diluted to concentrations described in the tables below. After approximately 48 hours, Yap1 mRNA levels were measured as previously described using the Human Yap1 primer-probe set RTS4814. Yap1 mRNA levels were normalized to total RNA content, as measured by RIBOGREEN®. Results are presented in the tables below as percent control of the amount of Yap1 mRNA relative to untreated control cells (% UTC). IC50s were calculated using a linear regression on a log/linear plot of the data in excel.

[1] = Table 55, 148 nM, free uptake, A-431 cells 5,000 cells per well, RTS4814
[2] = Table 55, 444 nM, free uptake, A-431 cells 5,000 cells per well, RTS4814
[3] = Table 55, 1333 nM, free uptake, A-431 cells 5,000 cells per well, RTS4814
[4] = Table 55, 4000 nM, free uptake, A-431 cells 5,000 cells per well, RTS4814
[5] = Table 55, A-431 cells 5,000 cells per well, free uptake, RTS4814
[6] = Table 53, A-431 cells, Yap1 mRNA, linear regression on a log/linear plot
[7] = Table 53, A-431 cells, free uptake, 148 nM, RTS4814
[8] = Table 53, A-431 cells, free uptake, 444 nM, RTS4814
[9] = Table 53, A-431 cells, free uptake, 1333 nM, RTS4814
[10] = Table 53, A-431 cells, free uptake, 4000 nM, RTS4814
[11] = Table 54, A-431 cells, Yap1 mRNA, linear regression on a log/linear plot
[12] = Table 54, A-431 cells, free uptake, 148 nM, RTS4814
[13] = Table 54, A-431 cells, free uptake, 444 nM, RTS4814
[14] = Table 54, A-431 cells, free uptake, 1333 nM, RTS4814
[15] = Table 54, A-431 cells, free uptake, 4000 nM, RTS4814

| Substance | Yap1 mRNA, % UTC [1] | Yap1 mRNA, % UTC [2] | Yap1 mRNA, % UTC [3] | Yap1 mRNA, % UTC [4] | IC50 [5] | IC50 [6] | % UTC 148 nM [7] | % UTC 444 nM [8] | % UTC 1333 nM [9] | % UTC 4000 nM [10] | IC50 [11] | % UTC 148 nM [12] | % UTC 444 nM [13] | % UTC 1333 nM [14] | % UTC 4000 nM [15] |
| --- | --- | --- | --- | --- | --- | --- | --- | --- | --- | --- | --- | --- | --- | --- | --- |
| 716537 (antisense kA*kT*kG*dT*dG*d[5mC]*dT*d[5mC]*d[5mC]*dA*dT*d[5mC]*dA*kA*k[5mC]*k[5mC]) [compound 716537] | 120 % UTC | 96 % UTC | 88 % UTC | 63 % UTC | > 4 µM | – | – | – | – | – | – | – | – | – | – |
| 715490 (k[5mC]*k[5mC]*kA*dA*d[5mC]*dT*dA*dT*dT*dA*d[5mC]*dT*dT*k[5mC]*kA*kT; antisense) [compound 715490] | – | – | – | – | – | 4.1 µM | 98 % UTC | 89 % UTC | 76 % UTC | 43 % UTC | – | – | – | – | – |
| 716387 (antisense kT*kA*kT*dG*dG*dT*dT*dT*dA*dT*dA*dT*dA*kG*kT*kA) [compound 716387] | 94 % UTC | 94 % UTC | 80 % UTC | 67 % UTC | > 4 µM | – | – | – | – | – | – | – | – | – | – |
| 715478 (kA*k[5mC]*k[5mC]*dA*dT*dT*dA*dT*dT*dA*d[5mC]*dT*d[5mC]*k[5mC]*kT*kG; antisense) [compound 715478] | 76 % UTC | 56 % UTC | 32 % UTC | 18 % UTC | 0.6 µM | 0.4 µM | 70 % UTC | 47 % UTC | 29 % UTC | 16 % UTC | 0.6 µM | 72 % UTC | 59 % UTC | 31 % UTC | 18 % UTC |
| 716407 (antisense k[5mC]*kT*kT*dA*dG*dT*d[5mC]*d[5mC]*dA*d[5mC]*dT*dG*dT*k[5mC]*kT*kG) [compound 716407] | 84 % UTC | 75 % UTC | 72 % UTC | 39 % UTC | 3 µM | – | – | – | – | – | – | – | – | – | – |
| 716445 (antisense kG*kT*kA*dT*dG*dT*dG*dG*d[5mC]*dA*dA*dT*dA*kA*kT*kT) [compound 716445] | – | – | – | – | – | – | – | – | – | – | 2.6 µM | 89 % UTC | 82 % UTC | 56 % UTC | 44 % UTC |
| 716469 (antisense kG*kT*kT*dT*dG*d[5mC]*dT*d[5mC]*d[5mC]*dT*dT*dT*d[5mC]*k[5mC]*kA*kA) [compound 716469] | – | – | – | – | – | – | – | – | – | – | > 4 µM | 71 % UTC | 78 % UTC | 89 % UTC | 39 % UTC |
| 716543 (antisense kT*kA*kT*dT*dT*dG*dT*dA*dG*d[5mC]*dA*dA*dA*kG*kT*k[5mC]) [compound 716543] | 62 % UTC | 99 % UTC | 79 % UTC | 64 % UTC | > 4 µM | – | – | – | – | – | – | – | – | – | – |
| 715479 (kA*kA*kA*d[5mC]*d[5mC]*dA*dT*dT*dA*dT*dT*dA*d[5mC]*kT*k[5mC]*k[5mC]; antisense) [compound 715479] | – | – | – | – | – | > 4 µM | 98 % UTC | 80 % UTC | 77 % UTC | 64 % UTC | – | – | – | – | – |
| 716503 (antisense kT*kT*kA*dT*dT*dA*dT*dG*dA*dG*dT*dG*dA*kT*k[5mC]*kA) [compound 716503] | 91 % UTC | 80 % UTC | 67 % UTC | 64 % UTC | > 4 µM | – | – | – | – | – | – | – | – | – | – |
| 716438 (antisense kA*kT*kT*dT*dT*dT*dG*dG*d[5mC]*dT*dT*dG*dT*k[5mC]*kA*kG) [compound 716438] | 93 % UTC | 75 % UTC | 62 % UTC | 49 % UTC | 3.4 µM | – | – | – | – | – | – | – | – | – | – |
| 716419 (antisense kT*kT*kT*d[5mC]*d[5mC]*dG*dG*dT*dG*d[5mC]*dA*dT*dG*kT*kG*kT) [compound 716419] | 89 % UTC | 84 % UTC | 49 % UTC | 47 % UTC | 2.5 µM | – | – | – | – | – | – | – | – | – | – |
| 716479 (antisense kG*kA*kA*d[5mC]*dA*dA*dT*d[5mC]*dT*dT*dG*dA*dA*kG*kG*k[5mC]) [compound 716479] | 88 % UTC | 78 % UTC | 55 % UTC | 57 % UTC | > 4 µM | – | – | – | – | – | – | – | – | – | – |
| 715523 (kA*kT*k[5mC]*dA*dG*dT*dA*d[5mC]*dT*dG*dG*d[5mC]*d[5mC]*kT*kA*kT; antisense) [compound 715523] | – | – | – | – | – | 3.2 µM | 100 % UTC | 62 % UTC | 75 % UTC | 44 % UTC | – | – | – | – | – |
| 716577 (antisense kT*k[5mC]*kT*dG*dT*d[5mC]*dA*dG*dT*dT*dA*dT*d[5mC]*k[5mC]*kT*kA) [compound 716577] | – | – | – | – | – | – | – | – | – | – | > 4 µM | 109 % UTC | 93 % UTC | 79 % UTC | 60 % UTC |
| 716381 (kT*kG*kT*d[5mC]*dT*dG*dA*dT*d[5mC]*dG*dA*dT*dG*kT*kG*kA; antisense) [compound 716381] | 106 % UTC | 90 % UTC | 80 % UTC | 44 % UTC | 4.2 µM | – | – | – | – | – | – | – | – | – | – |
| 716376 (k[5mC]*kG*kA*dA*dG*dA*dT*dG*d[5mC]*dT*dG*dA*dG*k[5mC]*kT*kG; antisense) [compound 716376] | – | – | – | – | – | – | – | – | – | – | > 4 µM | 103 % UTC | 94 % UTC | 79 % UTC | 50 % UTC |
| 716496 (antisense kG*kA*kA*dG*dA*dG*dA*dT*dT*dT*dT*dA*dT*kG*k[5mC]*k[5mC]) [compound 716496] | – | – | – | – | – | – | – | – | – | – | > 4 µM | 74 % UTC | 87 % UTC | 64 % UTC | 49 % UTC |
| 716484 (antisense k[5mC]*kA*k[5mC]*dT*dT*dT*dT*d[5mC]*d[5mC]*dA*dG*d[5mC]*dT*kA*kA*k[5mC]) [compound 716484] | – | – | – | – | – | – | – | – | – | – | > 4 µM | 88 % UTC | 78 % UTC | 80 % UTC | 55 % UTC |
| 715435 (kG*kG*kT*d[5mC]*dT*dT*dG*dT*dT*d[5mC]*dT*dT*dA*kT*kG*kG; antisense) [compound 715435] | – | – | – | – | – | – | – | – | – | – | 3.4 µM | 80 % UTC | 67 % UTC | 61 % UTC | 48 % UTC |
| 716505 (antisense kG*kA*kT*dT*dT*dA*dA*dT*d[5mC]*dT*dT*dT*d[5mC]*kT*kG*k[5mC]) [compound 716505] | – | – | – | – | – | – | – | – | – | – | > 4 µM | 83 % UTC | 103 % UTC | 82 % UTC | 66 % UTC |
| 715501 (kA*kA*kA*dA*dG*d[5mC]*d[5mC]*dT*dT*dA*dG*dA*dG*kT*k[5mC]*kA; antisense) [compound 715501] | – | – | – | – | – | > 4 µM | 82 % UTC | 82 % UTC | 68 % UTC | 56 % UTC | – | – | – | – | – |
| 716554 (antisense kA*kT*kG*d[5mC]*dT*dT*dG*d[5mC]*dG*dA*dG*dG*dA*kT*kA*kA) [compound 716554] | 87 % UTC | 90 % UTC | 76 % UTC | 50 % UTC | > 4 µM | – | – | – | – | – | – | – | – | – | – |
